Experimental data: patent US20130116231A1, “TYROSINE KINASE INHIBITORS” (Merck Sharp & Dohme Corp., priority 2010, published 2013)

Biological target: T1, human c-Met (Homo sapiens, UniProt P08581)
T1 construct: Recombinant GST-tagged cytosolic domains of human c-Met; 6xHis; made in house; host or cells: Sf9 or Sf21 insect cells (baculovirus)
Test: in vitro kinase assay (homogeneous time-resolved tyrosine kinase assay, METKA)
Type: biochemical
Conditions: recombinant GST-tagged c-Met cytosolic domain, HTRF, 50 μM MgATP; read-out: Biological Activity (METKA IC50) Activity Code
Excerpt: Recombinant GST-tagged cytosolic domains of human c-Met and other receptor tyrosine kinases including mouse c-Met, human Ron, KDR, IGFR, EGFR, FGFR, Mer, TrkA and Tie2 are used to determine whether the compounds of the instant invention modulate the enzymatic activities of these kinases.
Soluble recombinant GST-tagged cytosolic domains of c-Met and other receptor tyrosine kinases are expressed in a baculovirus system (Pharmingen) according to a protocol recommended by the manufacturer. The c-DNA encoding each cytosolic domain is subcloned into a baculovirus expression vector (pGcGHLT-A, B or C, Pharmingen) containing an in frame 6× histidine tag and a GST tag. The resulting plasmid construct and BaculoGold baculovirus DNA (Pharmingen) are used to co-transfect Sf9 or Sf21 insect cells. After confirming expression of GST-tagged kinase fusion, a high titer recombinant baculovirus stock is produced, expression conditions are optimized, and a scaled up expression of rat KDR-GST fusion is performed. The fusion kinase is then purified from the insect cell lysate by affinity chromatography using glutathione agarose (Pharmingen). The purified protein is dialyzed against 50% glycerol, 2 mM DTT, 50 mM Tris-HCl (pH 7.4) and stored at −20° C. The protein concentrations of the fusion proteins are determined using Coomassie Plus Protein Assay (Pierce) with BSA as standard.
The kinase activities of c-Met and other kinases are measured using a modified version of the homogeneous time-resolved tyrosine kinase assay described by Park et al. (1999, Anal. Biochem. 269:94-104).
The procedure for determining the potency of a compound to inhibit c-Met kinase comprises the following steps: • 1. Prepare 3-fold serial diluted compound solutions in 100% dimethyl sulfoxide (DMSO) at 20× of the desired final concentrations in a 96 well plate. • 2. Prepare a master reaction mix containing 6.67 mM MgCl2, 133.3 mM NaCl, 66.7 mM Tris-HCl (pH 7.4), 0.13 mg/ml BSA, 2.67 mM dithiothreitol, 0.27 nM recombinant c-Met and 666.7 nM biotinylated synthetic peptide substrate (biotin-ahx-EQEDEPEGDYFEWLE-CONH2) (SEQ.ID.NO.:1). • 3. In a black assay plate, add 2.5 μl of compound solution (or DMSO) and 37.5 μl of master reaction mix per well. Initiate the kinase reaction by adding 10 μl of 0.25 mM MgATP per well. Allow the reactions to proceed for 80 min at room temperature. The final conditions for the reaction are 0.2 nM c-Met, 0.5 μM substrate, 50 μM MgATP, […], 100 mM NaCl, 2 mM DTT, 0.1 mg/ml BSA, 50 mM Tris (pH 7.4) and 5% DMSO. • 4. Stop the kinase reaction with 50 μl of Stop/Detection buffer containing 10 mM EDTA, 25 mM HEPES, 0.1% TRITON X-100, 0.126 μg/ml Eu-chelate labeled anti-phosphotyrosine antibody PY20 (cat. #AD0067, PerkinElmer) and 45 μg/ml Streptavidin-allophycocyanin conjugate (cat. #PJ25S, Prozyme). • 5. Read HTRF signals on a Victor reader (PerkinElmer) in HTRF mode after 60 min. • 6. IC50 is determined by fitting the observed relationship between compound concentration and HTRF signal with a 4-parameter logistic equation. Essentially the same procedure was used to determine the potency of compounds to inhibit mouse c-Met, human Ron, KDR, IGFR, EGFR, FGFR, Mer, TrkA and Tie2 except that the concentration of enzyme varied in individual assays (0.2 nM mouse c-Met; 2.5 nM Ron, 8 nM KDR; 0.24 nM IGFR; 0.24 nM EGFR; 0.14 nM FGFR; 16 nM Mer; 8 nM TrkA; 8 nM Tie2).

T1 sequence (P08581 956-1390 limits assumed): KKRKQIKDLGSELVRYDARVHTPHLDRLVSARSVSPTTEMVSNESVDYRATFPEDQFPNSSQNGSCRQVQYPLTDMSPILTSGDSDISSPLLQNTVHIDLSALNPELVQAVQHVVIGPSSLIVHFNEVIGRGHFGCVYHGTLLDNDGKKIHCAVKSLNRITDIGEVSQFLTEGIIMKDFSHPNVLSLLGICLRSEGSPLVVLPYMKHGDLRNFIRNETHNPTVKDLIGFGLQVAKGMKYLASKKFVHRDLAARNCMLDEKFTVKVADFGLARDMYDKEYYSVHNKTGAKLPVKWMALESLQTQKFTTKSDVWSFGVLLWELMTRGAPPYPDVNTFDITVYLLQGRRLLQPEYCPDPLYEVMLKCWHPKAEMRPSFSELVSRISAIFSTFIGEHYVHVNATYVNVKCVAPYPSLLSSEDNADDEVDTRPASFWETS

Compound	IC50
CC(Oc1ccc2ncccc2c1)c1nn(-c2cccc(Br)c2)ccc1=O (single isomer, unassigned) [Example 113, 1-(3-bromophenyl)-3-[1-(quinolin-6-yloxy)ethyl]pyridazin-4(1H)-one]	1000 to 3000 nM
CC(Oc1ccc2ncccc2c1)c1nn(-c2cccc(Br)c2)ccc1=O (single isomer, unassigned) [Example 114, 1-(3-bromophenyl)-3-[1-(quinolin-6-yloxy)ethyl]pyridazin-4(1H)-one]	1000 to 3000 nM
CC(Cc1nn(-c2cnn(C)c2)ccc1=O)c1ccc2ncccc2c1 (single isomer, unassigned) [Example 125, 1-(1-methyl-1H-pyrazol-4-yl)-3-(2-quinolin-6-ylpropyl)pyridazin-4(1H)-one]	< 100 nM
CC(Cc1nn(-c2cnn(C)c2)ccc1=O)c1ccc2ncccc2c1 (single isomer, unassigned) [Example 126, 1-(1-methyl-1H-pyrazol-4-yl)-3-(2-quinolin-6-ylpropyl)pyridazin-4(1H)-one]	100 to 1000 nM
CC(Oc1nn(-c2cnn(C)c2)ccc1=O)c1ccc2ncccc2c1 (single isomer, unassigned) [Example 138, 1-(1-methyl-1H-pyrazol-4-yl)-3-(1-quinolin-6-ylethoxy)pyridazin-4(1H)-one]	100 to 1000 nM
CC(Oc1nn(-c2cnn(C)c2)ccc1=O)c1ccc2ncccc2c1 (single isomer, unassigned) [Example 139, 1-(1-methyl-1H-pyrazol-4-yl)-3-(1-quinolin-6-ylethoxy)pyridazin-4(1H)-one]	100 to 1000 nM
COc1cnc2ccc(C(C)Oc3nn(-c4cnn(C)c4)ccc3=O)cc2c1 (single isomer, unassigned) [Example 140, 3-[1-(3-methoxyquinolin-6-yl)ethoxy]-1-(1-methyl-1H-pyrazol-4-yl)pyridazin-4(1H)-one]	< 100 nM
CCOc1cnc2ccc(C(C)Oc3nn(-c4cnn(C)c4)ccc3=O)cc2c1 (single isomer, unassigned) [Example 141, 3-[1-(3-ethoxyquinolin-6-yl)ethoxy]-1-(1-methyl-1H-pyrazol-4-yl)pyridazin-4(1H)-one]	< 100 nM
CCOc1cnc2ccc(C(C)Oc3nn(-c4cnn(C)c4)ccc3=O)cc2c1 (single isomer, unassigned) [Example 142, 3-[1-(3-ethoxyquinolin-6-yl)ethoxy]-1-(1-methyl-1H-pyrazol-4-yl)pyridazin-4(1H)-one]	1000 to 3000 nM
COCCOc1cnc2ccc(C(C)Oc3nn(-c4cnn(C)c4)ccc3=O)cc2c1 (single isomer, unassigned) [Example 143, 3-{1-[3-(2-methoxyethoxy)quinolin-6-yl]ethoxy}-1-(1-methyl-1H-pyrazol-4-yl)pyridazin-4(1H)-one]	< 100 nM
COCCOc1cnc2ccc(C(C)Oc3nn(-c4cnn(C)c4)ccc3=O)cc2c1 (single isomer, unassigned) [Example 144, 3-{1-[3-(2-methoxyethoxy)quinolin-6-yl]ethoxy}-1-(1-methyl-1H-pyrazol-4-yl)pyridazin-4(1H)-one]	100 to 1000 nM
COc1ccnc2ccc(C(C)Oc3nn(-c4cnn(C)c4)ccc3=O)cc12 (single isomer, unassigned) [Example 145, 3-[1-(4-methoxyquinolin-6-yl)ethoxy]-1-(1-methyl-1H-pyrazol-4-yl)pyridazin-4(1H)-one]	< 100 nM
CCn1cc(-n2ccc(=O)c(OC(C)c3ccc4nccc(OC)c4c3)n2)cn1 (single isomer, unassigned) [Example 146, 1-(1-ethyl-1H-pyrazol-4-yl)-3-[1-(4-methoxyquinolin-6-yl)ethoxy]pyridazin-4(1H)-one]	< 100 nM
Cn1cc(-n2ccc(=O)c(COc3ccc4ncccc4c3)n2)cn1 [Example 1, 1-(1-Methyl-1H-pyrazol-4-yl)-3-[(quinolin-6-yloxy)methyl]pyridazin-4(1H)-one]	< 100 nM
Cn1cc(-n2ccc(=O)c(COc3cccc4cnccc34)n2)cn1 [Example 2, 3-[(isoquinolin-5-yloxy)methyl]-1-(1-methyl-1H-pyrazol-4-yl)pyridazin-4(1H)-one]	1000 to 3000 nM
N#Cc1cccc(-n2ccc(=O)c(COc3ccc4ncccc4c3)n2)c1 [Example 3, 3-{4-oxo-3-[(quinolin-6-yloxy)methyl]pyridazin-1(4H)-yl}benzonitrile]	< 100 nM
N#Cc1cc(F)cc(-n2ccc(=O)c(COc3ccc4ncccc4c3)n2)c1 [Example 4, 3-fluoro-5-{4-oxo-3-[(quinolin-6-yloxy)methyl]pyridazin-1(4H)-yl}benzonitrile]	< 100 nM
N#Cc1ccc(-n2ccc(=O)c(COc3ccc4ncccc4c3)n2)cc1 [Example 5, 4-{4-oxo-3-[(quinolin-6-yloxy)methyl]pyridazin-1(4H)-yl}benzonitrile]	< 100 nM
N#Cc1cc(Cl)cc(-n2ccc(=O)c(COc3ccc4ncccc4c3)n2)c1 [Example 6, 3-chloro-5-{4-oxo-3-[(quinolin-6-yloxy)methyl]pyridazin-1(4H)-yl}benzonitrile]	< 100 nM
O=c1ccn(-c2cc(F)cc(F)c2)nc1COc1ccc2ncccc2c1 [Example 7, 1-(3,5-difluorophenyl)-3-[(quinolin-6-yloxy)methyl] pyridazin-4(1H)-one]	< 100 nM
O=c1ccn(-c2ccc(F)c(F)c2)nc1COc1ccc2ncccc2c1 [Example 8, 1-(3,4-difluorophenyl)-3-[(quinolin-6-yloxy)methyl] pyridazin-4(1H)-one]	< 100 nM
Cn1cc(-n2ccc(=O)c(COc3ccc([N+](=O)[O-])cc3)n2)cn1 [Example 9, 1-(1-methyl-1H-pyrazol-4-yl)-3-[(4-nitrophenoxy)methyl] pyridazin-4(1H)-one]	1000 to 3000 nM
O=c1ccn(-c2cc(F)c(F)c(F)c2)nc1COc1ccc2ncccc2c1 [Example 10, 3-[(quinolin-6-yloxy)methyl]-1-(3,4,5-trifluorophenyl) pyridazin-4(1H)-one]	< 100 nM
Cn1cc(-n2ccc(=O)c(COc3ccc4nccnc4c3)n2)cn1 [Example 11, 1-(1-methyl-1H-pyrazol-4-yl)-3-[(quinoxalin-6-yloxy)methyl] pyridazin-4(1H)-one]	< 100 nM
CCOC(=O)c1ccc(OCc2nn(-c3cnn(C)c3)ccc2=O)cc1 [Example 12, ethyl 4-{[1-(1-methyl-1H-pyrazol-4-yl)-4-oxo-1,4-dihydropyridazin-3-yl]methoxy}benzoate]	100 to 1000 nM
Cc1ccc2cc(OCc3nn(-c4cnn(C)c4)ccc3=O)ccc2n1 [Example 13]	100 to 1000 nM
Cn1cc(-n2ccc(=O)c(COc3ccc4nc(C#N)sc4c3)n2)cn1 [Example 14, 6-{[1-(1-methyl-1H-pyrazol-4-yl)-4-oxo-1,4-dihydropyridazin-3-yl]methoxy}-1,3-benzothiazole-2-carbonitrile]	1000 to 3000 nM
Cn1cc(C(=O)Nc2cccc(OCc3nn(-c4cnn(C)c4)ccc3=O)c2)cn1 [Example 15, 1-Methyl-N-(3-{[1-(1-methyl-1H-pyrazol-4-yl)-4-oxo-1,4-dihydropyridazin-3-yl]methoxy}phenyl)-1H-pyrazole-4-carboxamide]	1000 to 3000 nM
CNC(=O)c1ccc(OCc2nn(-c3cnn(C)c3)ccc2=O)cc1 [Example 16, N-methyl-4-{[1-(1-methyl-1H-pyrazol-4-yl)-4-oxo-1,4-dihydropyridazin-3-yl]methoxy}benzamide]	100 to 1000 nM
Cn1cc(-n2ccc(=O)c(COc3ccc(C(=O)NCC(F)(F)F)cc3)n2)cn1 [Example 18, 4-{[1-(1-methyl-1H-pyrazol-4-yl)-4-oxo-1,4-dihydropyridazin-3-yl]methoxy}-N-(2,2,2-trifluoroethyl) benzamide]	1000 to 3000 nM
